Measurements: ChEMBL document CHEMBL2331186, “Five new phenolic glycosides from Hedyotis scandens” (Bioorg Med Chem Lett, 2013)
Calls of active or inactive are those of the source. The rule behind the calls is not given here.

What was measured:
[1] = test system: Respiratory syncytial virus; experiment: Antiviral activity against Respiratory syncytial virus assessed as reduction of virus-induced cytopathic effect at maximal non-toxic concentration; format: functional, organism-based
[2] = test system: Respiratory syncytial virus; experiment: Antiviral activity against Respiratory syncytial virus assessed as reduction of virus-induced cytopathic effect; format: functional, organism-based

| SMILES | Activity [1] | Activity [2] |
| --- | --- | --- |
| COC(=O)[C@@H](Cc1ccc(O)c(O)c1)OC(=O)/C=C/c1ccc(O)c(O[C@@H]2O[C@H](CO)[C@@H](O)[C@H](O)[C@H]2O)c1 | inactive | – |
| COC(=O)[C@@H](Cc1ccc(O)c(O)c1)OC(=O)/C=C/c1ccc(OC)c(O)c1 | inactive | – |
| COC(=O)[C@@H](Cc1ccc(O)c(O)c1)OC(=O)/C=C/c1ccc(O)c(O)c1 | inactive | – |
| O=C(O)/C=C/c1ccc(O)c(O)c1 | inactive | – |
| COc1cc(O[C@@H]2O[C@H](CO[C@@H]3OC[C@](O)(COC(=O)/C=C/c4ccc(O)cc4)[C@H]3O)[C@@H](O)[C@H](O)[C@H]2O)cc(OC)c1OC | inactive | – |
| Cc1occc(=O)c1O[C@@H]1O[C@H](CO[C@@H]2OC[C@](O)(CO)[C@H]2O)[C@@H](O)[C@H](O)[C@H]1O | – | Active |
| CCCCOC(=O)[C@@H](Cc1ccc(O)c(O)c1)OC(=O)/C=C/c1ccc(O)c(O)c1 | inactive | – |
| Cc1occc(=O)c1O[C@@H]1O[C@H](CO[C@@H]2OC[C@](O)(COC(=O)/C=C/c3ccc(O)c(O)c3)[C@H]2O)[C@@H](O)[C@H](O)[C@H]1O | inactive | – |
| OCCc1cc(O)cc(O[C@@H]2O[C@H](CO)[C@@H](O)[C@H](O)[C@H]2O)c1 | – | Active |
| O=C(/C=C/c1ccc(O)c(O)c1)O/C=C\c1ccc(O)c(O)c1 | inactive | – |
| Cc1occc(=O)c1O[C@@H]1O[C@H](CO[C@@H]2OC[C@](O)(COC(=O)/C=C/c3ccc(O)cc3)[C@H]2O)[C@@H](O)[C@H](O)[C@H]1O | inactive | – |
| CCCCOC(=O)[C@@H](Cc1ccc(O)c(O)c1)OC(=O)/C=C/c1ccc(O)c(O[C@@H]2O[C@H](CO)[C@@H](O)[C@H](O)[C@H]2O)c1 | inactive | – |
| O=C(/C=C/c1ccc(O)c(O)c1)O[C@H](Cc1ccc(O)c(O)c1)C(=O)O | inactive | – |
| O=C(/C=C/c1ccc(O)c(O[C@@H]2O[C@H](CO)[C@@H](O)[C@H](O)[C@H]2O)c1)O/C=C\c1ccc(O)c(O)c1 | inactive | – |
| N#C[C@H](O[C@@H]1O[C@H](CO[C@@H]2OC[C@](O)(COC(=O)/C=C/c3ccc(O)cc3)[C@H]2O)[C@@H](O)[C@H](O)[C@H]1O)c1ccccc1 | inactive | – |
